# Experimental data from publication PMC4358979, “Structure-Based Virtual Screening and Discovery of New PPARδ/γ Dual Agonist and PPARδ and γ Agonists” (PLoS ONE, 2015).
# Biological target: T1, PPARδ (Homo sapiens, UniProt Q03181)
# T1 construct: gene PPARD; pcDNA3-PPARδ expressed in HeLa cells
# T1 sequence (Q03181 1-441): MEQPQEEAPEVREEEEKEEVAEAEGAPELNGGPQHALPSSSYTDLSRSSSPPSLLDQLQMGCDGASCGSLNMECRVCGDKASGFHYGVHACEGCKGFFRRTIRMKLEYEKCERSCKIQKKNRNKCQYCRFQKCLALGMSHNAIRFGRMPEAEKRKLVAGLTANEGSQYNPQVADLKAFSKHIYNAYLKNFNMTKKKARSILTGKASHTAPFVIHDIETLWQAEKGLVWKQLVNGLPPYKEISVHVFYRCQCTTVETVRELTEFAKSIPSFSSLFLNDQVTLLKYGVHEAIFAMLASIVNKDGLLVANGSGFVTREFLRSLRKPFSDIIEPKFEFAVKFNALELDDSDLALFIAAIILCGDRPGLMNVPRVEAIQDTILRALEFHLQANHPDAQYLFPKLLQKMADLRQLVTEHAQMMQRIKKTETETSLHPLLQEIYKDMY
# Assay: PPRE-luciferase transactivation assay in HeLa cells, single concentration ([…])
# Assay type: cell-based
# Conditions: read-out: PPRE-luciferase transactivation assay in HeLa cells, single concentration (10 μM)
structure (smiles),measurement,value
"Cc1ccc(Cn2c(=N)n(CC(=O)O)c3ccccc32)cc1 [compound 5, [2-imino-3-(4-methylbenzyl)-2,3-dihydro-1H-benzimidazol-1-yl]acetic acid]",fold induction at 10 µM,6.4
